Experimental data published in US20240360114A1 (SIRONAX LTD., priority 2021, published 2024).

system: HT-1080 cells; assay: HT-1080 cell viability assay (ferroptosis induced by RSL3, Cell Titer-Glo); type: cell-based; conditions: Homo sapiens, HT-1080, 20 h, ferroptosis inducer RSL3, 20 hours, ferroptosis inhibitory activity, Table 2
Method in brief: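 Cells seeded overnight, then co-treated with RSL3 and compound (3-fold, 10-point dilution, top 1.1 μM) for 20 hours. Viability by CellTiter-Glo luminescence, normalized to untreated controls; EC50 from sigmoidal non-linear regression.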

| SMILES | EC50 |
| --- | --- |
| Cc1nc(N2CC(C)OC(C)C2)ccc1NCC12CC3CC(C1)C(N)C(C3)C2 (stereo not drawn) [Compound 516A, N-(((1s,4r)-4-aminoadamantan-1-yl)methyl)-6-(2,6-dimethylmorpholino)-2-methylpyridin-3-amine] | 0.1 to 100 nM |
| CC1(C)CCN(c2ncc(NC3C4CC5CC3CC(C(N)=O)(C5)C4)cn2)CC1 (stereo not drawn) [Compound 410, 4-((2-(4,4-dimethylpiperidin-1-yl)pyrimidin-5-yl)amino)adamantane-1-carboxamide] | 0.1 to 100 nM |
| Cc1c(N2CC(C)OC(C)C2)ccc(NC[C@H]2CC[C@H](N)CC2)c1F (stereo partly drawn) [Compound 469, N-(((1r,4r)-4-aminocyclohexyl)methyl)-4-(2,6-dimethylmorpholino)-2-fluoro-3-methylaniline] | 100 to 1000 nM |
| CC(C)(C)c1ccc(NCc2cnc[nH]2)cc1 [Compound 130, N-((1H-imidazol-5-yl)methyl)-4-(tert-butyl)aniline] | 100 to 1000 nM |
| Cc1cc(N2CC(C)OC(C)C2)ccc1NC1CCCCC1N (stereo not drawn) [Compound 442, N1-(4-(2,6-dimethylmorpholino)-2-methylphenyl)cyclohexane-1,2-diamine] | 100 to 1000 nM |
| COCCCCOc1cc(NC2CCC(N)C2)ccc1C(C)(C)C (stereo not drawn) [Compound 302, N1-(4-(tert-butyl)-3-(4-methoxybutoxy)phenyl)cyclopentane-1,3-diamine] | 0.1 to 100 nM |
| NC1C[C@@H]2CC(Nc3ccc(N4CCC(C(F)(F)F)CC4)cc3F)C[C@@H]2C1 (stereo partly drawn) [Compound 372, (3aR, 6aS)-N2-(2-fluoro-4-(4-(trifluoromethyl)piperidin-1-yl)phenyl)octahydropentalene-2,5-di amine] | 0.1 to 100 nM |
| Cc1nc(N2CCC(C(C)C)CC2)ccc1NC1CCC(CN)CC1 (stereo not drawn) [Compound 31, N-(4-(aminomethyl)cyclohexyl)-6-(4-isopropylpiperidin-1-yl)-2-methylpyridin-3-amine] | 0.1 to 100 nM |
| CC(C)(C)c1ccc(NC2C3CC4CC2CC(N)(C4)C3)cc1 (stereo not drawn) [Compound 95, N^4-(4-(tert-butyl)phenyl)adamantane-1,4-diamine] | 0.1 to 100 nM |
| CC1CN(c2ccc3cc(NC4CC5(CC(N)C5)C4)ccc3n2)CC(C)N1CC(F)(F)F (stereo not drawn) [Compound 567, N2-(2-(3,5-dimethyl-4-(2,2,2-trifluoroethyl)piperazin-1-yl)quinolin-6-yl)spiro-[3.3]heptane-2,6-diamine] | 0.1 to 100 nM |
| CC1CN(c2ccc(NC[C@H]3CC[C@H](N)CC3)c(C#N)c2)CC(C)O1 (stereo partly drawn) [Compound 484, 2-((((1r,4r)-4-aminocyclohexyl)methyl)amino)-5-(2,6-dimethylmorpholino) benzonitrile] | 1000 to 10000 nM |
| Cc1nc(N(C)CC(F)(F)F)ccc1NC1CC2(CC(N)C2)C1 (stereo not drawn) [Compound 558, N^5-(6-aminospiro [3.3]heptan-2-yl)-N2,6-dimethyl-N2-(2,2,2-trifluoroethyl)pyridine-2,5-diamine] | 0.1 to 100 nM |
| N[C@H]1CC[C@H](CNc2ccc(N3CC4CCC(C3)O4)c(F)c2)CC1 [Compound 472, N-(((1r,4r)-4-aminocyclohexyl)methyl)-4-(8-oxa-3-azabicyclo[3.2.1]octan-3-yl)-3-fluoroaniline] | 0.1 to 100 nM |
| CC(C)(C)c1ccc(NC(CCO)CCO)cc1 [Compound 234, 3-((4-(tert-butyl)phenyl)amino) pentane-1,5-diol] | 1000 to 10000 nM |
| Cc1nc(N2C[C@@H](C)N(CC(F)(F)F)[C@@H](C)C2)ccc1NC[C@H]1CC[C@H](N)CC1 [Compound 543, N-(((1r,4R)-4-aminocyclohexyl)methyl)-6-((3R,5S)-3,5-dimethyl-4-(2,2,2-trifluoroethyl)piperazin-1-yl)-2-methylpyridin-3-amine] | 0.1 to 100 nM |
| CC1CN(c2ccc(NC3C4CC5CC3CC(CN)(C5)C4)cc2)CC(C)O1 (stereo not drawn) [Compound 426, 5-(aminomethyl)-N-(4-(2,6-dimethylmorpholino)phenyl)adamantan-2-amine] | 0.1 to 100 nM |
| Cc1cc(N2CCCCC2)ccc1NC1C[C@H]2CC(N)C[C@H]2C1 (stereo partly drawn) [Compound 392, (3aR,6aS)-N2-(2-methyl-4-(piperidin-1-yl)phenyl) octahydropentalene-2,5-diamine] | 0.1 to 100 nM |

The remaining lines, values ahead:

| EC50 | SMILES |
| --- | --- |
| 100 to 1000 nM | Cc1cc(NC2CCC(N)CC2)cc(C)c1C (single isomer, unassigned) [Compound 182A, N1-(3,4,5-trimethylphenyl)cyclohexane-1,4-diamine] |
| 0.1 to 100 nM | CN(C)CCNC1CCC(Nc2ccc(C(C)(C)C)cc2)CC1 (stereo not drawn) [Compound 257] |
| 0.1 to 100 nM | Cc1cc(N2CCC(C)(C)CC2)ccc1NC1CCC(N)CC1 (stereo not drawn) [Compound 381, N1-(4-(4,4-dimethylpiperidin-1-yl)-2-methylphenyl)cyclohexane-1,4-diamine] |
| 0.1 to 100 nM | N[C@H]1CC[C@H](CNc2ccc3c(c2)CCC3)CC1 [Compound 308, N-(((1r,4r)-4-aminocyclohexyl)methyl)-2,3-dihydro-1H-inden-5-amine] |
| 1000 to 10000 nM | NC1CCC(Nc2cccc3c2CCC3)CC1 (single isomer, unassigned) [Compound 191A, N1-(2,3-dihydro-1H-inden-4-yl)cyclohexane-1,4-diamine] |
| 0.1 to 100 nM | N[C@H]1CC[C@H](CNc2ccc(N3CCC(C(F)(F)F)CC3)cc2)CC1 [Compound 356, N-(((1r,4r)-4-aminocyclohexyl)methyl)-4-(4-(trifluoromethyl)piperidin-1-yl)aniline] |
| 1000 to 10000 nM | NC1CCC(Nc2ccc(Cl)cc2)CC1 (stereo not drawn) [Compound 161, N1-(4-chlorophenyl)cyclohexane-1,4-diamine] |
| 0.1 to 100 nM | C[C@@H](O)[C@H](N)CNC1CCC(Nc2ccc(C(C)(C)C)cc2)CC1 (stereo partly drawn) [Compound 341, (2R, 3R)-3-amino-4-((4-((4-(tert-butyl)phenyl)amino)cyclohexyl)amino) butan-2-ol] |
| 0.1 to 100 nM | NCC1CCC(Nc2ccc3c(c2)CCC3)CC1 (stereo not drawn) [Compound 235, N-(4-(aminomethyl)cyclohexyl)-2,3-dihydro-1H-inden-5-amine] |
| 0.1 to 100 nM | CCCC1CCN(c2ncc(NC3CCC(N)CC3)cn2)CC1 (stereo not drawn) [Compound 29, N1-(2-(4-propylpiperidin-1-yl)pyrimidin-5-yl)cyclohexane-1,4-diamine] |
| 1000 to 10000 nM | CC(C)(C)c1ccc(NC2CCC(N)(C(=O)O)CC2)cc1 (stereo not drawn) [Compound 189, 1-amino-4-((4-(tert-butyl)phenyl)amino)cyclohexane-1-carboxylic acid] |
| 0.1 to 100 nM | NC1CCC(Nc2ccc3c(c2)CCCC3)CC1 (stereo not drawn) [Compound 236, N1-(5,6,7,8-tetrahydronaphthalen-2-yl)cyclohexane-1,4-diamine] |
| 100 to 1000 nM | COCCNC1CCC(Nc2ccc(C(C)(C)C)cc2)CC1 (stereo not drawn) [Compound 169, 1-N-(4-(tert-butyl)phenyl)-N4-(2-methoxyethyl)cyclohexane-1,4-diamine] |
| 0.1 to 100 nM | CCC(C)(C)c1ccc(NC2CCC(C)(N)CC2)cc1 (stereo not drawn) [Compound 172, 1-methyl-N4-(4-(tert-pentyl)phenyl)cyclohexane-1,4-diamine] |
| 0.1 to 100 nM | CC(C)(C)c1ccc(NC2CCC(CNc3cn[nH]c3)CC2)cc1 (stereo not drawn) [Compound 348, N-((4-((4-(tert-butyl)phenyl)amino)cyclohexyl)methyl)-1H-pyrazol-4-amine] |
| 0.1 to 100 nM | CC(N)C1CCC(Nc2ccc(C3CCC(C)(C)CC3)cc2)CC1 (stereo not drawn) [Compound 140, N-(4-(1-aminoethyl)cyclohexyl)-4-(4,4-dimethylcyclohexyl)aniline] |
| 0.1 to 100 nM | CC1(C)CCC(c2ccc(NC3CC(C(N)=O)C3)cc2)CC1 (stereo not drawn) [Compound 145, 3-((4-(4,4-dimethylcyclohexyl)phenyl)amino)cyclobutane-1-carboxamide] |
| 0.1 to 100 nM | Cc1cc(NC[C@H]2CC[C@H](N)CC2)cc(C)c1C [Compound 314, N-(((1r,4r)-4-aminocyclohexyl)methyl)-3,4,5-trimethylaniline] |
| 0.1 to 100 nM | CC1(C)CCC(c2ccc(NC3CCC(NC(=O)[C@H]4CNC(=O)N4)C3)cc2)CC1 (mixture of isomers) [Compound 155] |
| 1000 to 10000 nM | CC(C)(C)c1ccc(NC2CCC(N)CC2)c(Cl)c1 (single isomer, unassigned) [Compound 183A, N1-(4-(tert-butyl)-2-chlorophenyl)cyclohexane-1,4-diamine] |
| 0.1 to 100 nM | CC(C)(C)c1ccc(NC2CCC(NCC(O)CN)CC2)cc1 (stereo not drawn) [Compound 349A, 1-amino-3-((4-((4-(tert-butyl)phenyl)amino)cyclohexyl)amino)propan-2-ol] |
| 100 to 1000 nM | CCCc1ccc(NC2CCC(N)CC2)cc1 (single isomer, unassigned) [Compound 135A, N1-(4-propylphenyl)cyclohexane-1,4-diamine] |

same assay, conditions: Homo sapiens, HT-1080, 20 h, ferroptosis inducer RSL3, 20 hours, ferroptosis inhibitory activity, Table 3

| EC50 | SMILES |
| --- | --- |
| 0.1 to 100 nM | Cc1nc(N2CCC(C3CC(C)OC(C)C3)CC2)ccc1NC1CC2(CC(N)C2)C1 (stereo not drawn) [Compound 594, N^2-(6-(4-(2,6-dimethyltetrahydro-2H-pyran-4-yl)piperidin-1-yl)-2-methylpyridin-3-yl)spiro[3.3]heptane-2,6-diamine] |
| 0.1 to 100 nM | CC[C@@H]1CN(c2ccc(NC3CC(N)C3)c(C)n2)C[C@H](CC)O1 (stereo partly drawn) [Compound 576, N1-(6-((2S,6R)-2,6-diethylmorpholino)-2-methylpyridin-3-yl)cyclobutane-1,3-diamine] |
| 0.1 to 100 nM | NC1CC2(C1)CC(Nc1ccc3cc(N4CCOC(C(F)(F)F)C4)ccc3c1)C2 (stereo not drawn) [Compound 653, N2-(6-(2-(trifluoromethyl)morpholino)naphthalen-2-yl)spiro[3.3]heptane-2,6-diamine] |

| SMILES | EC50 |
| --- | --- |
| Cc1nc(N2CC[Si](C)(C)CC2)ccc1NC1CC(N)C1 (stereo not drawn) [Compound 608, N1-(6-(4,4-dimethyl-1,4-azasilinan-1-yl)-2-methylpyridin-3-yl)cyclobutane-1,3-diamine] | 0.1 to 100 nM |

same assay, conditions: ferroptosis inducer RSL3, 20 hours, ferroptosis inhibitory activity, Table 2

| EC50 | SMILES |
| --- | --- |
| 0.1 to 100 nM | NC1CCC(Nc2ccc(C3CCCCC3)cc2)CC1 (stereo not drawn) [Compound 133, N1-(4-cyclohexylphenyl)cyclohexane-1,4-diamine] |
| 0.1 to 100 nM | Cc1cc(N2CC(C)OC(C)C2)ccc1NCC1CCC(N)CC1 (stereo not drawn) [Compound 407, N-(((1r,4r)-4-aminocyclohexyl)methyl)-4-(2,6-dimethylmorpholino)-2-methylaniline] |
